Data taken from patent publication US20210051949A1, “SOLID AGROCHEMICAL COMPOSITIONS” (UPL LTD, priority 2018, published 2021).

Tests used:
[1] = Comparative study of degradation of metsulfuron methyl in compositions with 2,4-D acid or 2,4-D sodium salt plus picloram (accelerated heat stability); assay type: physicochemical; conditions: for Active content: picloram, metsulfuron methyl
Experimental: Degradation of Metsulfuron Methyl in Compositions with 2,4-D Acid and 2,4-D Sodium Salt: Comparative Study
A comparative study of degradation of metsulfuron methyl in composition of 2,4-D acid and 2,4-D sodium salt in combination with picloram was carried out. The results are summarized in the below table (Table 1):
The study was conducted at 0 days as well as after 14 days at 54° C. (accelerated heat stability conditions).

[2] = Physical parameters (active content, suspensibility, dispersibility, moisture, wet sieve) of a composition of 2,4-D acid, metsulfuron methyl and picloram acid; assay type: physicochemical; set-up: unit not given here
Text: Physical Parameters of a Composition Comprising 2, 4-D Acid, Metsulfuron Methyl and Picloram Acid:
Physical parameters such as suspensibility, dispersibility has been tested for a composition prepared according to the present invention are listed in the below table (Table 2).
As evident from the Table 2, the physical parameters such as suspensibility and dispersibility of the compositions prepared according to the present invention satisfies the requirement for a stable formulation.

[3] = composition with 2,4-D acid, 0 days
[4] = composition with 2,4-D acid, 14 days at 54° C.
[5] = composition with 2,4-sodium salt, 0 days
[6] = composition with 2,4-sodium salt, 14 days at 54° C.

Compound | Active content [1, 3] | Active content [1, 4] | % degradation after 14 days [1, 4] | Active content [1, 5] | Active content [1, 6] | % degradation after 14 days [1, 6] | Active ingredient (content) ([2]; 14 Day AHS) | Suspensibility ([2]; 14 Day AHS) | Active ingredient (content) ([2]; Ambient) | Suspensibility ([2]; Ambient)
O=C(O)COc1ccc(Cl)cc1Cl [2,4-D acid, 2,4-dichlorophenoxy acetic acid] | 333.03 gm | 325.01 gm | 2.41% | 325.28 gm | 328.01 gm | 0.84% | 319.6 | 99.10 | 320.5 | 99.96
COC(=O)c1ccccc1S(=O)(=O)NC(=O)Nc1nc(C)nc(OC)n1 [Metsulfuron methyl] | 46.06 gm | 44.42 gm | – | 49.78 gm | 43.88 gm | – | 39.30 | 99.75 | 42.3 | 100.90
Nc1c(Cl)c(Cl)nc(C(=O)O)c1Cl [Picloram acid, Picloram] | 98.96 gm | 98.05 gm | 0.92% | 95.65 gm | 95.59 gm | 0.06% | 105.5 | 99.61 | 106.5 | 100.50
